Results: the supplement of paper PMC11451515

Test system: NOMO1
Experiment: cell viability relative to DMSO control; higher = less cytotoxic
Details: 48 h
Procedure, shortened: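 Viability, reported as a per-plate percentage of DMSO wells with cell-free wells as background, came from CellTiter-Glo One luminescence. Reading took place after 48 h at 37°C. Before that, NOMO1 or SEM (500 cells/well) or P12-Ichikawa (1000 cells/well) leukemia cells, adapted for at least four passages in each medium, were seeded in 1536-well plates (5 μl) and pin-dosed with library compounds in DMSO, 47 μM to 0.79 nM over 11 threefold points.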

[1] = HPLM + 10% dialyzed FBS, 0.000781 µM
[2] = HPLM + 10% dialyzed FBS, 0.00234 µM
[3] = HPLM + 10% dialyzed FBS, 0.00702 µM
[4] = HPLM + 10% dialyzed FBS, 0.0211 µM
[5] = HPLM + 10% dialyzed FBS, 0.0632 µM
[6] = HPLM + 10% dialyzed FBS, 0.19 µM
[7] = HPLM + 10% dialyzed FBS, 0.569 µM
[8] = HPLM + 10% dialyzed FBS, 1.71 µM
[9] = HPLM + 10% dialyzed FBS, 5.12 µM
[10] = HPLM + 10% dialyzed FBS, 15.4 µM
[11] = HPLM + 10% dialyzed FBS, 46.1 µM
[12] = RPMI 5 mM glucose + 10% FBS, 0.000781 µM
[13] = RPMI 5 mM glucose + 10% FBS, 0.00234 µM
[14] = RPMI 5 mM glucose + 10% FBS, 0.00702 µM
[15] = RPMI 5 mM glucose + 10% FBS, 0.0211 µM
[16] = RPMI 5 mM glucose + 10% FBS, 0.0632 µM
[17] = RPMI 5 mM glucose + 10% FBS, 0.19 µM
[18] = RPMI 5 mM glucose + 10% FBS, 0.569 µM
[19] = RPMI 5 mM glucose + 10% FBS, 1.71 µM
[20] = RPMI 5 mM glucose + 10% FBS, 5.12 µM
[21] = RPMI 5 mM glucose + 10% FBS, 15.4 µM
[22] = RPMI 5 mM glucose + 10% FBS, 46.1 µM
[23] = RPMI 5 mM glucose + 10% dialyzed FBS, 0.000781 µM
[24] = RPMI 5 mM glucose + 10% dialyzed FBS, 0.00234 µM
[25] = RPMI 5 mM glucose + 10% dialyzed FBS, 0.00702 µM
[26] = RPMI 5 mM glucose + 10% dialyzed FBS, 0.0211 µM
[27] = RPMI 5 mM glucose + 10% dialyzed FBS, 0.0632 µM
[28] = RPMI 5 mM glucose + 10% dialyzed FBS, 0.19 µM
[29] = RPMI 5 mM glucose + 10% dialyzed FBS, 0.569 µM
[30] = RPMI 5 mM glucose + 10% dialyzed FBS, 1.71 µM
[31] = RPMI 5 mM glucose + 10% dialyzed FBS, 5.12 µM
[32] = RPMI 5 mM glucose + 10% dialyzed FBS, 15.4 µM
[33] = RPMI 5 mM glucose + 10% dialyzed FBS, 46.1 µM

SMILES | cell viability [1] [%] | cell viability [2] [%] | cell viability [3] [%] | cell viability [4] [%] | cell viability [5] [%] | cell viability [6] [%] | cell viability [7] [%] | cell viability [8] [%] | cell viability [9] [%] | cell viability [10] [%] | cell viability [11] [%] | cell viability [12] [%] | cell viability [13] [%] | cell viability [14] [%] | cell viability [15] [%] | cell viability [16] [%] | cell viability [17] [%] | cell viability [18] [%] | cell viability [19] [%] | cell viability [20] [%] | cell viability [21] [%] | cell viability [22] [%] | cell viability [23] [%] | cell viability [24] [%] | cell viability [25] [%] | cell viability [26] [%] | cell viability [27] [%] | cell viability [28] [%] | cell viability [29] [%] | cell viability [30] [%] | cell viability [31] [%] | cell viability [32] [%] | cell viability [33] [%]
O=C(CCCCCCC(=O)Nc1cccnc1)NO | 92.3 | 108 | 105 | 101 | 114 | 91.1 | 108 | 109 | 91.3 | 70.5 | 8.89 | 83.6 | 91.2 | 98 | 84.1 | 84.9 | 91.8 | 100 | 83.6 | 84.3 | 72.8 | 12.3 | 101 | 92.3 | 93.9 | 93.1 | 101 | 102 | 110 | 85.1 | 95.4 | 74.1 | 12.7
CCOC(=O)C(C#N)C\1C2=CC(=CC=C2O\C(=C1C(=O)OCC)N)Br (stereo not drawn) | 113 | 120 | 110 | 99.9 | 114 | 104 | 96.1 | 107 | 117 | 92.4 | 97.5 | 97.8 | 90.3 | 97.5 | 87.9 | 99.3 | 102 | 107 | 91.5 | 94.5 | 83.7 | 82.4 | 99.1 | 95.1 | 99 | 95.7 | 104 | 83.8 | 94.4 | 94.7 | 96.7 | 80.3 | 82.6
CC[N+](CC)(CC)CCOc1cccc(OCC[N+](CC)(CC)CC)c1OCC[N+](CC)(CC)CC |  |  |  |  |  |  |  |  |  |  |  | 106 | 118 | 108 | 118 | 136 | 110 | 98 | 98.9 | 104 | 112 | 75.7 | 116 | 118 | 115 | 109 | 127 | 114 | 99.4 | 100 | 111 | 101 | 91
C[C@]12Cc3cn[nH]c3C[C@@H]1CC[C@@H]1[C@@H]2CC[C@@]2(C)[C@H]1CC[C@]2(C)O |  |  |  |  |  |  |  |  |  |  |  | 97.1 | 102 | 100 | 105 | 106 | 103 | 109 | 112 | 100 | 92.4 | 90.7 | 102 | 119 | 122 | 120 | 114 | 105 | 103 | 92.8 | 95.3 | 109 | 96.3
CC[C@]12CC[C@H]3[C@@H](CCC/4=C/C(=O)CC[C@H]34)[C@@H]1CC[C@@]2(O)C#C | 100 | 92.6 | 101 | 85.8 | 97.1 | 94.4 | 86.6 | 72.4 | 89.2 | 80.4 | 69.8 | 92.7 | 78.8 | 95 | 88.5 | 81.8 | 75.1 | 72.2 | 76.3 | 82.5 | 73.5 | 70.8 | 82.1 | 77.5 | 77.7 | 86.6 | 75.4 | 77.6 | 79.7 | 78.5 | 74.1 | 74.9 | 84.5
